US20220298038A1, “A METHOD FOR DISRUPTING BIOFILMS IN WASTEWATER SYSTEMS” (GRENOF PTY LTD, priority 2019, published 2022)
Read-outs that look alike come from different tables or passages of the source.

Columns and labels:
Catalase = conditions: cited from earlier work
[1] = cited from earlier work
[2] = system: biofilm in a sewerage network; experiment: Trial 2: H2S Odalog monitoring, manhole 200 m from Location 2; parameters: species or system sulphate reducing microbes and methanogenic archaea
[3] = cited from earlier work; remark: listed apart in the source
biofilm = experiment: Biofilm disrupting activity compared with other oxidants
Description: Peracetic acid is typically more reactive at higher temperature (5 times more reactive at 35° C. than 15° C.). […] This is believed to be due to the nature and type of radicals formed upon cleavage of the peracetic acid peroxy bond.

[4] = cited from earlier work; remark: listed apart in the source
[5] = 35° C. vs 15° C.; cited from earlier work
[6] = cited from earlier work; remark: listed apart in the source
[7] = standard oxidation potential (at pH 7)
[8] = Days 67-68, H2O2 330 mg/L after F1 dosing stopped

In the case of `CCOO` [ethyl hydroperoxide], the binding by catalase (Catalase) is listed as “rapidly” and the catalysis by catalase (Catalase) is listed as “very inefficient”.
In the case of `O=[O+][O-]` [Ozone], the “Oxidation Potential” value ([1]; pH 7) is listed as 2.07 eV.
For `OO` [Formulation H2O2, hydrogen peroxide], the “Oxidation Potential” value [1, 7] is listed as 1.78 eV, the “Avg. H2S” value [2, 8] is listed as 0.3 ppm and the “Peak H2S” value [2, 8] is listed as 3 ppm. For the same compound, the “Avg. H2S” value ([2]; Days 69-81, H2O2 330 mg/L) was 2.8 ppm, the “Peak H2S” value ([2]; Days 69-81, H2O2 330 mg/L) was 72 ppm and the “Avg. H2S” value ([2]; Days 82-86, H2O2 1,000 mg/L) was 3.7 ppm. For the same compound, the “Peak H2S” value ([2]; Days 82-86, H2O2 1,000 mg/L) was 33 ppm.
For `CCCCCCCC(=O)OO` [peroxyoctanoic acid], the solubility in water ([3]; (at pH 7)) is given as “slightly soluble”.
For `CCCCCCCCCCCC(=O)OO` [peroxydodecanoic], the solubility in water ([3]; pH 7) is given as “very limited solubility”.
For `OCl` [Sodium Hypochlorite], the “Oxidation Potential” value [1, 7] is listed as 0.94 eV.
In the case of `CCCCCCCCCCCCCCCCCC(=O)OO` [peroxyoctadecanoic], the solubility in water ([3]; pH 7) is listed as “very limited solubility”.
For `CC(=O)OO` [Peracetic Acid, peroxyacetic acid], the “biofilm disrupting activity compared with hydrogen peroxide” value (biofilm; vs hydrogen peroxide) is given as “stronger biofilm disrupting activity”, the “biofilm disrupting activity compared with ozone” value (biofilm; vs ozone) is given as “stronger biofilm disrupting activity” and the “Oxidation Potential” value ([1]; pH 7) is given as 1.81 eV. The “DT50 (25° C.)” value ([4]; pH 4) was 46.7 h, the “DT50 (25° C.)” value ([4]; pH 7) was 31.7 h and the “DT50 (25° C.)” value ([4]; pH 9) was 3.6 h. The “reactivity at 35° C. relative to 15° C.” value [5] was 5 times.
In the case of `S` [Bisulphide (HS^−), Bisulphide], the “Mole Fraction of Species (%)” value ([6]; pH 4) is listed as under 1%, the “Mole Fraction of Species (%)” value ([6]; pH 5) is listed as about 1% and the “Mole Fraction of Species (%)” value ([6]; pH 5.5) is listed as 3%. The “Mole Fraction of Species (%)” value ([6]; pH 6.0) was 9%, the “Mole Fraction of Species (%)” value ([6]; pH 6.5) was 24% and the “Mole Fraction of Species (%)” value ([6]; pH 7.0) was 50%. The “Mole Fraction of Species (%)” value ([6]; pH 7.5) was 76%, the “Mole Fraction of Species (%)” value ([6]; pH 8.0) was 91% and the “Mole Fraction of Species (%)” value ([6]; pH 8.5) was 97%. For the same compound, the “Mole Fraction of Species (%)” value ([6]; pH 9.0) was about 99% and the “Mole Fraction of Species (%)” value ([6]; pH 10.0) was over 99%.
For `S` [Hydrogen Sulphide (H2S), Hydrogen Sulphide], the “Mole Fraction of Species (%)” value ([6]; pH 4) is listed as over 99%, the “Mole Fraction of Species (%)” value ([6]; pH 5) is listed as about 99% and the “Mole Fraction of Species (%)” value ([6]; pH 5.5) is listed as 97%. The “Mole Fraction of Species (%)” value ([6]; pH 6.0) was 91%, the “Mole Fraction of Species (%)” value ([6]; pH 6.5) was 76% and the “Mole Fraction of Species (%)” value ([6]; pH 7.5) was 24%. For the same compound, the “Mole Fraction of Species (%)” value ([6]; pH 8.0) was 9%, the “Mole Fraction of Species (%)” value ([6]; pH 8.5) was 3% and the “Mole Fraction of Species (%)” value ([6]; pH 9.0) was about 1%. For the same compound, the “Mole Fraction of Species (%)” value ([6]; pH 10.0) was under 1%.
In the case of `[O][Cl+][O-]` [Chlorine Dioxide], the “Oxidation Potential” value ([1]; pH 7) is given as 0.95 eV.
